The values below come from ChEMBL document CHEMBL1155776, “Effect of fluoroquinolone treatment on growth of and toxin production by epidemic and nonepidemic clostridium difficile strains in the cecal contents of mice” (Antimicrob Agents Chemother, 2007).

SMILES strings stand for the structures. Values after ≈ are worked out from the molar mass of the structure shown. Active and inactive are the calls of the source. The rule behind the calls is not given here.

In series [1] the test system is Clostridioides difficile. The series is described as follows: Increase in toxin level in epidemic Clostridium difficile BI6-8-17 infected CF1 mouse at 1.4 mg/day, sc for 4 days assessed after 2 days of last treatment. It counts as functional, organism-based.
Series [2] concerns Clostridioides difficile. The series is described as follows: Increase in toxin level in epidemic Clostridium difficile BI9 infected CF1 mouse at 2 mg/day, sc for 4 days assessed after 2 days of last treatment. The series is classed as functional, organism-based.
The subject of series [3] is Clostridioides difficile. The series can be described thus: Effect on growth of epidemic Clostridium difficile BI9 in CF1 mouse assessed as increase in bacterial density in cecal content at 1.4 mg/day, sc for 4 days assessed after 2 days of last treatment. The series is classed as functional, organism-based.
Series [4] deals with Clostridioides difficile. The series is described as follows: Increase in toxin level in nonepidemic Clostridium difficile J29 infected CF1 mouse at 1.4 mg/day, sc for 4 days assessed after 2 days of last treatment. It counts as functional, organism-based.
Series [5] deals with Clostridioides difficile. The series can be described thus: Effect on growth of nonepidemic Clostridium difficile ATCC 9689 in CF1 mouse assessed as increase in bacterial density in cecal content at 1.4 mg/day, sc for 4 days assessed after 2 days of last treatment. The series is classed as functional, organism-based.
For series [6], the system named is Clostridioides difficile. The series can be described thus: Effect on growth of epidemic Clostridium difficile BI9 in CF1 mouse assessed as increase in bacterial density in cecal content at 2 mg/day, sc for 4 days assessed after 2 days of last treatment. The series is classed as functional, organism-based.
Series [7] concerns Clostridioides difficile. The series is described as follows: Increase in toxin level in epidemic Clostridium difficile BI9 infected CF1 mouse at 0.2 mg/day, sc for 4 days assessed after 2 days of last treatment. It counts as functional, organism-based.
The subject of series [8] is Clostridioides difficile. The series can be described thus: Increase in toxin level in nonepidemic Clostridium difficile ATCC 9689 infected in CF1 mouse at 1.4 mg/day, sc for 4 days assessed after 2 days of last treatment. The series is classed as functional, organism-based.
For series [9], the system named is Clostridioides difficile. The series can be described thus: Increase in toxin level in nonepidemic Clostridium difficile J29 infected CF1 mouse at 2 mg/day, sc for 4 days assessed after 2 days of last treatment. It counts as functional, organism-based.
The subject of series [10] is Clostridioides difficile. The series is described as follows: Increase in toxin level in nonepidemic Clostridium difficile ATCC 9689 infected in CF1 mouse at 2 mg/day, sc for 4 days assessed after 2 days of last treatment. The series is classed as functional, organism-based.
Series [11] relates to Clostridioides difficile. The series is described as follows: Increase in toxin level in nonepidemic Clostridium difficile J29 infected CF1 mouse at 0.2 mg/day, sc for 4 days assessed after 2 days of last treatment. It counts as functional, organism-based.
Series [12] deals with Clostridioides difficile. The series can be described thus: Effect on growth of epidemic Clostridium difficile BI6-8-17 in CF1 mouse assessed as increase in bacterial density in cecal content at 2 mg/day, sc for 4 days assessed after 2 days of last treatment. It counts as functional, organism-based.
Series [13] concerns Clostridioides difficile. The series can be described thus: Antimicrobial activity against fluoroquinolone-resistant epidemic Clostridium difficile NAP1 by broth dilution method. It counts as functional.
For series [14], the system named is Clostridioides difficile. The series is described as follows: Increase in toxin level in epidemic Clostridium difficile BI6-8-17 infected CF1 mouse at 0.2 mg/day, sc for 4 days assessed after 2 days of last treatment. It counts as functional, organism-based.
The test system of series [15] is Clostridioides difficile. The series can be described thus: Increase in toxin level in epidemic Clostridium difficile BI6-8-17 infected CF1 mouse at 2 mg/day, sc for 4 days assessed after 2 days of last treatment. The series is classed as functional, organism-based.
Series [16] deals with Clostridioides difficile. The series is described as follows: Effect on growth of epidemic Clostridium difficile BI6-8-17 in CF1 mouse assessed as increase in bacterial density in cecal content at 1.4 mg/day, sc for 4 days assessed after 2 days of last treatment. The series is classed as functional, organism-based.
Series [17] deals with Clostridioides difficile. The series can be described thus: Antimicrobial activity against fluoroquinolone-susceptible nonepidemic Clostridium difficile strain6 by broth dilution method. It counts as functional. On the technique in general: Dilution methods test growth across graded concentrations, often in twofold steps.
In series [18] the test system is Clostridioides difficile. The series is described as follows: Antimicrobial activity against nonepidemic Clostridium difficile J29 by broth dilution method. It counts as functional.
The subject of series [19] is Clostridioides difficile. The series is described as follows: Increase in toxin level in nonepidemic Clostridium difficile ATCC 9689 infected in CF1 mouse at 0.2 mg/day, sc for 4 days assessed after 2 days of last treatment. The series is classed as functional, organism-based.
For series [20], the system named is Clostridioides difficile. The series is described as follows: Effect on growth of nonepidemic Clostridium difficile ATCC 9689 in CF1 mouse assessed as increase in bacterial density in cecal content at 2 mg/day, sc for 4 days assessed after 2 days of last treatment. The series is classed as functional, organism-based.
Series [21] concerns Clostridioides difficile. The series can be described thus: Effect on growth of nonepidemic Clostridium difficile J29 in CF1 mouse assessed as increase in bacterial density in cecal content at 1.4 mg/day, sc for 4 days assessed after 2 days of last treatment. The series is classed as functional, organism-based.
For series [22], the system named is Clostridioides difficile. The series can be described thus: Antimicrobial activity against epidemic Clostridium difficile BI6-8-17 by broth dilution method. It counts as functional.
The subject of series [23] is Clostridioides difficile. The series can be described thus: Effect on growth of fluoroquinolone-susceptible nonepidemic Clostridium difficile strain6 in CF1 mouse assessed as increase in bacterial density in cecal content at dosed sc for 5 days. The series is classed as functional, organism-based.
In series [24] the test system is Clostridioides difficile. The series can be described thus: Effect on growth of nonepidemic Clostridium difficile J29 in CF1 mouse assessed as increase in bacterial density in cecal content at 2 mg/day, sc for 4 days assessed after 2 days of last treatment. It counts as functional, organism-based.
Series [25] deals with Clostridioides difficile. The series can be described thus: Antimicrobial activity against nonepidemic Clostridium difficile ATCC 9689 by broth dilution method. It counts as functional.
Series [26] relates to Clostridioides difficile. The series can be described thus: Increase in toxin level in epidemic Clostridium difficile BI9 infected CF1 mouse at 1.4 mg/day, sc for 4 days assessed after 2 days of last treatment. It counts as functional, organism-based.
The subject of series [27] is Clostridioides difficile. The series is described as follows: Antimicrobial activity against epidemic Clostridium difficile BI9 by broth dilution method. It counts as functional.
Series [28] relates to Clostridioides difficile. The series is described as follows: Inhibition of clindamycin-susceptible nonepidemic Clostridium difficile strain6 in CF1 mouse at 0.2 mg/day, sc for 5 days. It counts as functional, organism-based.
The test system of series [29] is Clostridioides difficile. The series can be described thus: Inhibition of clindamycin-susceptible epidemic Clostridium difficile NAP1 in CF1 mouse at 0.2 mg/day, sc for 5 days assessed after 2 days of last treatment. It counts as functional, organism-based.
Series [30] deals with Clostridioides difficile. The series is described as follows: Inhibition of clindamycin-susceptible nonepidemic Clostridium difficile strain6 in CF1 mouse at 0.2 mg/day, sc for 5 days assessed after 2 days of last treatment. It counts as functional, organism-based.
Series [31] relates to Clostridioides difficile. The series can be described thus: Inhibition of clindamycin-susceptible epidemic Clostridium difficile NAP1 in CF1 mouse at 0.2 mg/day, sc for 5 days. The series is classed as functional, organism-based.
Series [32] concerns Clostridioides difficile. The series is described as follows: Effect on growth of epidemic Clostridium difficile BI9 in CF1 mouse assessed as increase in bacterial density in cecal content at 0.4 mg/day, sc for 4 days assessed after 2 days of last treatment. It counts as functional, organism-based.
The nature of series [33]: Drug level in Clostridium difficile infected CF1 mouse stool at 0.2 mg/day for 4 days. As to conditions: read-out: Drug uptake. It counts as ADME.
The nature of series [34]: Drug level in Clostridium difficile infected CF1 mouse stool at 0.375 mg/day for 4 days. The series is classed as ADME. As to conditions: read-out: Drug uptake.

As usually defined, the MIC is the least concentration at which growth counts as inhibited. As for `CO/N=C(\C(=O)N[C@@H]1C(=O)N2C(C(=O)O)=C(CSc3nc(=O)c(O)nn3C)CS[C@H]12)c1csc(N)n1` [CEFTRIAXONE], the result in the series on Clostridioides difficile [1], in the series with Clostridioides difficile [2], in the series with Clostridioides difficile [3], in the series on Clostridioides difficile [4], with Clostridioides difficile [5] and in the series with Clostridioides difficile [6] was Active. The outcome with Clostridioides difficile [7], in the series with Clostridioides difficile [8], in the series on Clostridioides difficile [9], in the series with Clostridioides difficile [10], in the series on Clostridioides difficile [11] and in the series on Clostridioides difficile [12] was Active. For the same molecule, the outcome in the series with Clostridioides difficile [14], with Clostridioides difficile [15], in the series with Clostridioides difficile [16], with Clostridioides difficile [19], with Clostridioides difficile [20] and with Clostridioides difficile [21] was Active. Also, the outcome in the series on Clostridioides difficile [23], in the series with Clostridioides difficile [24] and with Clostridioides difficile [26] was Active. Moreover, the minimal inhibitory concentration (MIC) was 16 µg/mL (≈ 28.9 µM) against Clostridioides difficile [13]; 32 µg/mL (≈ 57.7 µM) with Clostridioides difficile [17]; 64 µg/mL (≈ 115 µM) against Clostridioides difficile [18]; 32 µg/mL (≈ 57.7 µM) with Clostridioides difficile [22]; 32 µg/mL (≈ 57.7 µM) against Clostridioides difficile [25]; 32 µg/mL (≈ 57.7 µM) in the series on Clostridioides difficile [27].
Consider `CCC[C@@H]1C[C@@H](C(=O)N[C@@H]([C@H]2O[C@H](SC)[C@H](O)[C@@H](O)[C@H]2O)[C@H](C)Cl)N(C)C1` [CLINDAMYCIN], for which the result in the series on Clostridioides difficile [1], with Clostridioides difficile [2], in the series on Clostridioides difficile [3], in the series on Clostridioides difficile [4], in the series with Clostridioides difficile [5] and in the series on Clostridioides difficile [6] was Active. In addition, the outcome with Clostridioides difficile [7], with Clostridioides difficile [28], in the series with Clostridioides difficile [8], with Clostridioides difficile [9], in the series on Clostridioides difficile [10] and with Clostridioides difficile [11] was Active. In addition, the outcome with Clostridioides difficile [12], in the series with Clostridioides difficile [14], in the series on Clostridioides difficile [16], in the series with Clostridioides difficile [19], with Clostridioides difficile [20] and in the series with Clostridioides difficile [21] was Active. For the same molecule, the result with Clostridioides difficile [24], with Clostridioides difficile [31] and in the series on Clostridioides difficile [26] was Active. Moreover, the minimal inhibitory concentration (MIC) against Clostridioides difficile [13] is 2 µg/mL (≈ 4.71 µM); against Clostridioides difficile [17], 2 µg/mL (≈ 4.71 µM); with Clostridioides difficile [18], more than 256 µg/mL; in the series on Clostridioides difficile [22], more than 256 µg/mL; in the series with Clostridioides difficile [25], more than 256 µg/mL; against Clostridioides difficile [27] it was more than 256 µg/mL. Moreover, the outcome in the series with Clostridioides difficile [29] and in the series with Clostridioides difficile [30] was inactive.
Regarding `COc1c(N2CCNC(C)C2)c(F)cc2c(=O)c(C(=O)O)cn(C3CC3)c12` (stereo not drawn) [GATIFLOXACIN], the result in the series with Clostridioides difficile [1], in the series with Clostridioides difficile [2], in the series on Clostridioides difficile [4], with Clostridioides difficile [7], in the series on Clostridioides difficile [8] and in the series on Clostridioides difficile [9] was Active. The result in the series with Clostridioides difficile [10], with Clostridioides difficile [11], with Clostridioides difficile [14], with Clostridioides difficile [32], in the series with Clostridioides difficile [15] and in the series on Clostridioides difficile [19] was Active. For the same molecule, the outcome with Clostridioides difficile [26] was Active. The MIC was 256 µg/mL (≈ 682 µM) with Clostridioides difficile [13]; 4 µg/mL (≈ 10.7 µM) against Clostridioides difficile [17]; 32 µg/mL (≈ 85.2 µM) with Clostridioides difficile [18]; 32 µg/mL (≈ 85.2 µM) in the series on Clostridioides difficile [22]; less than 2 µg/mL in the series on Clostridioides difficile [25]; 64 µg/mL (≈ 170 µM) in the series on Clostridioides difficile [27]. In addition, the concentration at 96 h in series [33] is 76600 ng/g.
On to `C[C@H]1COc2c(N3CCN(C)CC3)c(F)cc3c(=O)c(C(=O)O)cn1c23.C[C@H]1COc2c(N3CCN(C)CC3)c(F)cc3c(=O)c(C(=O)O)cn1c23.O` [LEVOFLOXACIN], for which the minimum inhibitory concentration (MIC) is more than 256 µg/mL against Clostridioides difficile [13]; 8 µg/mL against Clostridioides difficile [17]; 256 µg/mL against Clostridioides difficile [18]; more than 256 µg/mL against Clostridioides difficile [22]; 8 µg/mL in the series on Clostridioides difficile [25]; 256 µg/mL in the series with Clostridioides difficile [27]. For the same molecule, in series [34], the concentration at 96 h was found to be 58100 ng/g.
